Bounds are passed on as bounds.

The series relates to VCaP cells. The series can be described thus: Cytotoxicity assessment (Cell-titer-glo cell viability), VCaP. To be noted: read-out: VCaP (CC50); VCaP cells, 6 days of treatment, Cell-titer-glo, vs DMSO.

Consider `CC1(C)C(NC(=O)c2ccc(C#CC3CCN(CC4CCN(C(=O)C5CCN(c6ccc7nnn(C8CCC(=O)NC8=O)c(=O)c7c6)CC5)CC4)CC3)nc2)C(C)(C)C1Oc1ccc(C#N)c(Cl)c1` (centres unmarked) [Example 131, N-((1r,3r)-3-(3-chloro-4-cyanophenoxy)-2,2,4,4-tetramethylcyclobutyl)-6-((1-((1-(1-(3-(2,6-dioxopiperidin-3-yl)-4-oxo-3,4-dihydrobenzo[d][1,2,3]triazin-6-yl)piperidine-4-carbonyl)piperidin-4-yl)methyl)piperidin-4-yl)ethynyl)nicotinamide], for which the CC50 was found to be 0.0185 µM.

Consider `CC1(C)C(NC(=O)c2ccc(CCN3CCN(CC4CCN(C(=O)C5CCN(c6ccc7nnn(C8CCC(=O)NC8=O)c(=O)c7c6)CC5)CC4)CC3)cc2)C(C)(C)C1Oc1ccc(C#N)c(Cl)c1` (centres unmarked) [Example 108, N-((1r,3r)-3-(3-chloro-4-cyanophenoxy)-2,2,4,4-tetramethylcyclobutyl)-4-(2-(4-((1-(1-(3-(2,6-dioxopiperidin-3-yl)-4-oxo-3,4-dihydrobenzo[d][1,2,3]triazin-6-yl)piperidine-4-carbonyl)piperidin-4-yl)methyl)piperazin-1-yl)ethyl)benzamide], for which the CC50 was 0.0188 µM. For the compound `CC1(C)C(NC(=O)c2ccc(C#CC3CCN(CC4CCN(C(=O)CNc5ccc6nnn(C7CCC(=O)NC7=O)c(=O)c6c5)CC4)CC3)cc2)C(C)(C)C1Oc1ccc(C#N)c(Cl)c1` (centres unmarked) [Example 98, N-((1r,3r)-3-(3-chloro-4-cyanophenoxy)-2,2,4,4-tetramethylcyclobutyl)-4-((1-((1-((3-(2,6-dioxopiperidin-3-yl)-4-oxo-3,4-dihydrobenzo[d][1,2,3]triazin-6-yl)glycyl)piperidin-4-yl)methyl)piperidin-4-yl)ethynyl)benzamide], the CC50 came to 0.00672 µM.

For `CC1(C)C(NC(=O)c2ccc(-n3cc(CNC(=O)CNc4ccc5nnn(C6CCC(=O)NC6=O)c(=O)c5c4)nn3)cc2)C(C)(C)C1Oc1ccc(C#N)c(Cl)c1` (centres unmarked) [Example 152, N-((1r,3r)-3-(3-chloro-4-cyanophenoxy)-2,2,4,4-tetramethylcyclobutyl)-4-(4-((2-((3-(2,6-dioxopiperidin-3-yl)-4-oxo-3,4-dihydrobenzo[d][1,2,3]triazin-6-yl)amino)acetamido)methyl)-1H-1,2,3-triazol-1-yl)benzamide], the CC50 turned out to be 0.233 µM. The result for `CC1(C)C(NC(=O)c2ccc(-c3cnn(C4CCN(CC5CCN(C(=O)CNc6ccc7nnn(C8CCC(=O)NC8=O)c(=O)c7c6)CC5)CC4)c3)nc2)C(C)(C)C1Oc1ccc(C#N)c(Cl)c1` (centres unmarked) [Example 125, N-((1r,3r)-3-(3-chloro-4-cyanophenoxy)-2,2,4,4-tetramethylcyclobutyl)-6-(1-(1-((1-((3-(2,6-dioxopiperidin-3-yl)-4-oxo-3,4-dihydrobenzo[d][1,2,3]triazin-6-yl)glycyl)piperidin-4-yl)methyl)piperidin-4-yl)-1H-pyrazol-4-yl)nicotinamide] reads 0.0155 µM. Turning to `CC1(C)C(NC(=O)c2ccc(-n3cc(CCOCCOCCNC(=O)CNc4ccc5nnn(C6CCC(=O)NC6=O)c(=O)c5c4)nn3)cc2)C(C)(C)C1Oc1ccc(C#N)c(Cl)c1` (centres unmarked) [Example 159, N-((1r,3r)-3-(3-chloro-4-cyanophenoxy)-2,2,4,4-tetramethylcyclobutyl)-4-(4-(2-(2-(2-(2-((3-(2,6-dioxopiperidin-3-yl)-4-oxo-3,4-dihydrobenzo[d][1,2,3]triazin-6-yl)amino)acetamido)ethoxy)ethoxy)ethyl)-1H-1,2,3-triazol-1-yl)benzamide], the CC50 turned out to be 0.109 µM. Regarding `CC1(C)C(NC(=O)c2ccc(-c3cnn(C4CCN(CC5CCN(C(=O)CNc6ccc7nnn(C8CCC(=O)NC8=O)c(=O)c7c6)CC5)CC4)c3)cc2)C(C)(C)C1Oc1ccc(C#N)c(Cl)c1` (centres unmarked) [Example 112, N-((1r,3r)-3-(3-chloro-4-cyanophenoxy)-2,2,4,4-tetramethylcyclobutyl)-4-(1-(1-((1-((3-(2,6-dioxopiperidin-3-yl)-4-oxo-3,4-dihydrobenzo[d][1,2,3]triazin-6-yl)glycyl)piperidin-4-yl)methyl)piperidin-4-yl)-1H-pyrazol-4-yl)benzamide], the CC50 was 0.016 µM. The result for `CC1(C)C(NC(=O)c2ccc(N3CC4CN(CC5CCN(C(=O)CNc6ccc7nnn(C8CCC(=O)NC8=O)c(=O)c7c6)CC5)CC4C3)cc2)C(C)(C)C1Oc1ccc(C#N)c(Cl)c1` (centres unmarked) [Example 138, N-((1r,3r)-3-(3-chloro-4-cyanophenoxy)-2,2,4,4-tetramethylcyclobutyl)-4-(5-((1-((3-(2,6-dioxopiperidin-3-yl)-4-oxo-3,4-dihydrobenzo[d][1,2,3]triazin-6-yl)glycyl)piperidin-4-yl)methyl)hexahydropyrrolo[3,4-c]pyrrol-2(1H)-yl)benzamide] reads 0.0637 µM. The result for `CC1(C)C(NC(=O)c2ccc(C#CCC3CCN(CC4CCN(C(=O)COc5ccc6nnn(C7CCC(=O)NC7=O)c(=O)c6c5)CC4)CC3)cc2)C(C)(C)C1Oc1ccc(C#N)c(Cl)c1` (centres unmarked) [Example 119, N-((1r,3r)-3-(3-chloro-4-cyanophenoxy)-2,2,4,4-tetramethylcyclobutyl)-4-(3-(1-((1-(2-((3-(2,6-dioxopiperidin-3-yl)-4-oxo-3,4-dihydrobenzo[d][1,2,3]triazin-6-yl)oxy)acetyl)piperidin-4-yl)methyl)piperidin-4-yl)prop-1-yn-1-yl)benzamide] reads 0.036 µM; that for `CC1(C)C(NC(=O)c2ccc(C#CC3CCN(C(=O)C4CN(c5ccc6nnn(C7CCC(=O)NC7=O)c(=O)c6c5)C4)CC3)cc2)C(C)(C)C1Oc1ccc(C#N)c(Cl)c1` (centres unmarked) [Example 95, N-((1r,3r)-3-(3-chloro-4-cyanophenoxy)-2,2,4,4-tetramethylcyclobutyl)-4-((1-(1-(3-(2,6-dioxopiperidin-3-yl)-4-oxo-3,4-dihydrobenzo[d][1,2,3]triazin-6-yl)azetidine-3-carbonyl)piperidin-4-yl)ethynyl)benzamide], 0.0045 µM. The result for `CC1(C)C(NC(=O)c2ccc(C#CCC3CCN(CC4CCN(c5ccc6nnn(C7CCC(=O)NC7=O)c(=O)c6c5)CC4)CC3)nc2)C(C)(C)C1Oc1ccc(C#N)c(Cl)c1` (centres unmarked) [Example 129, N-((1r,3r)-3-(3-chloro-4-cyanophenoxy)-2,2,4,4-tetramethylcyclobutyl)-6-(3-(1-((1-(3-(2,6-dioxopiperidin-3-yl)-4-oxo-3,4-dihydrobenzo[d][1,2,3]triazin-6-yl)piperidin-4-yl)methyl)piperidin-4-yl)prop-1-yn-1-yl)nicotinamide] reads 0.0194 µM; that for `CC1(C)C(NC(=O)c2ccc(-c3cnn(C4CCN(CC5CCN(C(=O)C6CN(c7ccc8nnn(C9CCC(=O)NC9=O)c(=O)c8c7)C6)CC5)CC4)c3)nc2)C(C)(C)C1Oc1ccc(C#N)c(Cl)c1` (centres unmarked) [Example 114, N-((1r,3r)-3-(3-chloro-4-cyanophenoxy)-2,2,4,4-tetramethylcyclobutyl)-6-(1-(1-((1-(1-(3-(2,6-dioxopiperidin-3-yl)-4-oxo-3,4-dihydrobenzo[d][1,2,3]triazin-6-yl)azetidine-3-carbonyl)piperidin-4-yl)methyl)piperidin-4-yl)-1H-pyrazol-4-yl)nicotinamide], 0.014 µM; that for `CC1(C)C(NC(=O)c2cnc(N3CCN(CC4CCN(C(=O)COc5ccc6nnn(C7CCC(=O)NC7=O)c(=O)c6c5)CC4)CC3)nc2)C(C)(C)C1Oc1ccc(C#N)c(Cl)c1` (centres unmarked) [Example 148, N-((1r,3r)-3-(3-chloro-4-cyanophenoxy)-2,2,4,4-tetramethylcyclobutyl)-2-(4-((1-(2-((3-(2,6-dioxopiperidin-3-yl)-4-oxo-3,4-dihydrobenzo[d][1,2,3]triazin-6-yl)oxy)acetyl)piperidin-4-yl)methyl)piperazin-1-yl)pyrimidine-5-carboxamide], ~0.01 µM. On to `CC1(C)C(NC(=O)c2ccc(C#CCC3CCN(CC4CCN(C(=O)CNc5ccc6nnn(C7CCC(=O)NC7=O)c(=O)c6c5)CC4)CC3)nc2)C(C)(C)C1Oc1ccc(C#N)c(Cl)c1` (centres unmarked) [Example 128, N-((1r,3r)-3-(3-chloro-4-cyanophenoxy)-2,2,4,4-tetramethylcyclobutyl)-6-(3-(1-((1-((3-(2,6-dioxopiperidin-3-yl)-4-oxo-3,4-dihydrobenzo[d][1,2,3]triazin-6-yl)glycyl)piperidin-4-yl)methyl)piperidin-4-yl)prop-1-yn-1-yl)nicotinamide], for which the CC50 was 0.011 µM. The same measure for `CC1(C)[C@H](NC(=O)c2ccc(-n3cc(CNc4ccc5nnn(C6CCC(=O)NC6=O)c(=O)c5c4)nn3)cc2)C(C)(C)[C@H]1Oc1ccc(C#N)c(Cl)c1` (some centres unmarked) [Example 149, N-((1r,3r)-3-(3-chloro-4-cyanophenoxy)-2,2,4,4-tetramethylcyclobutyl)-4-(4-(((3-(2,6-dioxopiperidin-3-yl)-4-oxo-3,4-dihydrobenzo[d][1,2,3]triazin-6-yl)amino)methyl)-1H-1,2,3-triazol-1-yl)benzamide]: > 10 µM. Consider `CC1(C)[C@H](NC(=O)c2cnc(N3CCN(CC4CCN(C(=O)C5CCN(c6ccc7nnn(C8CCC(=O)NC8=O)c(=O)c7c6)CC5)CC4)CC3)nc2)C(C)(C)[C@H]1Oc1ccc(C#N)c(Cl)c1` (some centres unmarked) [Example 145, N-((1r,3r)-3-(3-chloro-4-cyanophenoxy)-2,2,4,4-tetramethylcyclobutyl)-2-(4-((1-(1-(3-(2,6-dioxopiperidin-3-yl)-4-oxo-3,4-dihydrobenzo[d][1,2,3]triazin-6-yl)piperidine-4-carbonyl)piperidin-4-yl)methyl)piperazin-1-yl)pyrimidine-5-carboxamide], for which the cytotoxic concentration (CC50) was ~0.01 µM. Regarding `CC1(C)C(NC(=O)c2ccc(-c3cnn(C4CCN(CC5CCN(C(=O)COc6ccc7nnn(C8CCC(=O)NC8=O)c(=O)c7c6)CC5)CC4)c3)cc2)C(C)(C)C1Oc1ccc(C#N)c(Cl)c1` (centres unmarked) [Example 113, N-((1r,3r)-3-(3-chloro-4-cyanophenoxy)-2,2,4,4-tetramethylcyclobutyl)-4-(1-(1-((1-(2-((3-(2,6-dioxopiperidin-3-yl)-4-oxo-3,4-dihydrobenzo[d][1,2,3]triazin-6-yl)oxy)acetyl)piperidin-4-yl)methyl)piperidin-4-yl)-1H-pyrazol-4-yl)benzamide], the CC50 was determined as 0.03 µM.

The CC50 is the concentration at which the toxic effect on the cells reaches its halfway point.

(Values after US20240018123A1, “COMPOUND FOR INHIBITING OR DISINTEGRATING ANDROGEN RECEPTOR, AND PHARMACEUTICAL USE THEREOF” (KOREA RESEARCH INSTITUTE OF CHEMICAL TECHNOLOGY, priority 2020, published 2024).)
